Data reported in patent US12043632B2, “6-heteroaryloxy benzimidazoles and azabenzimidazoles as JAK2 inhibitors” (Ajax Therapeutics, Inc., priority 2020, dated 2024).

Molecular target: T1, JAK2 (JH1domain-catalytic, Y1007F,Y1008F) kinase (Homo sapiens, UniProt O60674, Y1007F/Y1008F)
T1 construct: JAK2 (JH1domain-catalytic, Y1007F,Y1008F) kinase was expressed as N-terminal fusion; made in house; host or cells: transiently transfected HEK293 cells
Assay: JAK2 JH1 Domain Binding Assay
Settings: qPCR readout

T1 sequence (O60674 849-1124 Y1007F/Y1008F limits assumed): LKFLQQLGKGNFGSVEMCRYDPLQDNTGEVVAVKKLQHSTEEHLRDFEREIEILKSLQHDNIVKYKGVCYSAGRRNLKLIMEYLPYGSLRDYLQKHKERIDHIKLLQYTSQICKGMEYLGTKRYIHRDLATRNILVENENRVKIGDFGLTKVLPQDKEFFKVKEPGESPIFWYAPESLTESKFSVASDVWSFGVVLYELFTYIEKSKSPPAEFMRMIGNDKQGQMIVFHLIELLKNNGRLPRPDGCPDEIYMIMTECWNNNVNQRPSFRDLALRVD

Row | Structure (SMILES) | Kd [nM]
1 | Cn1c(Nc2cc(C(F)(F)F)cn(-c3cccnc3)c2=O)nc2ncc(Oc3cnn4ccccc34)c(C#N)c21 [Example I-157, 1-methyl-2-((2-oxo-5-(trifluoromethyl)-2H-[1,3′-bipyridin]-3-yl)amino)-6-(pyrazolo[1,5-a]pyridin-3-yloxy)-1H-imidazo[4,5-b]pyridine-7-carbonitrile] | < 10
2 | Cn1c(Nc2cc(C(C)(C)C)n([C@H]3C[C@H](O)C3)n2)nc2ncc(Oc3cnn4ccncc34)c(C#N)c21 [Example I-158, trans-2-((5-(tert-butyl)-1-(3-hydroxycyclobutyl)-1H-pyrazol-3-yl)amino)-1-methyl-6-(pyrazolo[1,5-a]pyrazin-3-yloxy)-1H-imidazo[4,5-b]pyridine-7-carbonitrile] | < 10
3 | Cn1c(Nc2cc(C(F)(F)F)cn(CCCN3CCOCC3)c2=O)nc2ncc(Oc3cnn4ccccc34)c(C#N)c21 [Example I-159, 1-methyl-2-((1-(3-morpholinopropyl)-2-oxo-5-(trifluoromethyl)-1,2-dihydropyridin-3-yl)amino)-6-(pyrazolo[1,5-a]pyridin-3-yloxy)-1H-imidazo[4,5-b]pyridine-7-carbonitrile] | < 10
4 | Cn1c(Nc2cc(C(F)(F)F)cn(CCO)c2=O)nc2ncc(Oc3cnn4ccccc34)c(C#N)c21 [Example I-160, 2-((1-(2-hydroxyethyl)-2-oxo-5-(trifluoromethyl)-1,2-dihydropyridin-3-yl)amino)-1-methyl-6-(pyrazolo[1,5-a]pyridin-3-yloxy)-1H-imidazo[4,5-b]pyridine-7-carbonitrile] | < 10
5 | Cn1cc(-n2cc(C(F)(F)F)cc(Nc3nc4ncc(Oc5cnn6cc(F)ccc56)c(Cl)c4n3C)c2=O)cn1 [Example I-161, 3-((7-chloro-6-((6-fluoropyrazolo[1,5-a]pyridin-3-yl)oxy)-1-methyl-1H-imidazo[4,5-b]pyridin-2-yl)amino)-1-(1-methyl-1H-pyrazol-4-yl)-5-(trifluoromethyl)pyridin-2(1H)-one] | < 10
6 | Cn1c(Nc2cc(C(F)(F)F)cn([C@H]3C[C@@H](O)C3)c2=O)nc2ncc(Oc3cnn4cc(F)ccc34)c(Cl)c21 [Example I-162, cis-3-((7-chloro-6-((6-fluoropyrazolo[1,5-a]pyridin-3-yl)oxy)-1-methyl-1H-imidazo[4,5-b]pyridin-2-yl)amino)-1-(3-hydroxycyclobutyl)-5-(trifluoromethyl)pyridin-2(1H)-one] | < 10
7 | Cn1c(Nc2cc(C(F)(F)F)cn(CCO)c2=O)nc2ncc(Oc3cnn4cc(F)ccc34)c(Cl)c21 [Example I-163, 3-((7-chloro-6-((6-fluoropyrazolo[1,5-a]pyridin-3-yl)oxy)-1-methyl-1H-imidazo[4,5-b]pyridin-2-yl)amino)-1-(2-hydroxyethyl)-5-(trifluoromethyl)pyridin-2(1H)-one] | < 10
8 | CCn1c(C(C)(C)C)ncc(Nc2nc3ncc(Oc4cnn5ccncc45)c(Cl)c3n2C)c1=O [Example I-164, 2-(tert-butyl)-5-((7-chloro-1-methyl-6-(pyrazolo[1,5-a]pyrazin-3-yloxy)-1H-imidazo[4,5-b]pyridin-2-yl)amino)-3-ethylpyrimidin-4(3H)-one] | 10 to 50
9 | Cn1c(=O)c(Nc2nc3ncc(Oc4cnn5ccncc45)c(Cl)c3n2C)cn(C2CC2)c1=O [Example I-165, 5-((7-chloro-1-methyl-6-(pyrazolo[1,5-a]pyrazin-3-yloxy)-1H-imidazo[4,5-b]pyridin-2-yl)amino)-1-cyclopropyl-3-methylpyrimidine-2,4(1H,3H)-dione] | 1000 to 5000
10 | Cn1cc(C(F)(F)F)cc(Nc2nc3ncc(Oc4cnn5ccc(N6CCOCC6)cc45)c(Cl)c3n2C)c1=O [Example I-166, 3-((7-chloro-1-methyl-6-((5-morpholinopyrazolo[1,5-a]pyridin-3-yl)oxy)-1H-imidazo[4,5-b]pyridin-2-yl)amino)-1-methyl-5-(trifluoromethyl)pyridin-2(1H)-one] | < 10
11 | Cn1c(Nc2cc(C(F)(F)F)cn([C@H]3C[C@@H](O)C3)c2=O)nc2ncc(Oc3cnn4ccccc34)c(C#N)c21 [Example I-167, cis-2-((1-(3-hydroxycyclobutyl)-2-oxo-5-(trifluoromethyl)-1,2-dihydropyridin-3-yl)amino)-1-methyl-6-(pyrazolo[1,5-a]pyridin-3-yloxy)-1H-imidazo[4,5-b]pyridine-7-carbonitrile] | < 10
12 | Cn1c(Nc2cc(C(C)(C)C)n(C3COC3)n2)nc2ncc(Oc3cnn4ccncc34)c(C#N)c21 [Example I-168, 2-((5-(tert-butyl)-1-(oxetan-3-yl)-1H-pyrazol-3-yl)amino)-1-methyl-6-(pyrazolo[1,5-a]pyrazin-3-yloxy)-1H-imidazo[4,5-b]pyridine-7-carbonitrile] | 10 to 50
13 | CN1CC[C@H](n2nc(Nc3nc4ncc(Oc5cnn6cc(F)ccc56)c(Cl)c4n3C)cc2C(C)(C)C)C1 [Example I-169, (S)—N-(5-(tert-butyl)-1-(1-methylpyrrolidin-3-yl)-1H-pyrazol-3-yl)-7-chloro-6-((6-fluoropyrazolo[1,5-a]pyridin-3-yl)oxy)-1-methyl-1H-imidazo[4,5-b]pyridin-2-amine] | < 10
14 | CN1CC[C@@H](n2nc(Nc3nc4ncc(Oc5cnn6cc(F)ccc56)c(Cl)c4n3C)cc2C(C)(C)C)C1 [Example I-170] | 10 to 50
15 | CNc1nccn2ncc(Oc3cnc4nc(Nc5cc(C(F)(F)F)cn(-c6cnn(C)c6)c5=O)n(C)c4c3Cl)c12 [Example I-171, 3-((7-chloro-1-methyl-6-((4-(methylamino)pyrazolo[1,5-a]pyrazin-3-yl)oxy)-1H-imidazo[4,5-b]pyridin-2-yl)amino)-1-(1-methyl-1H-pyrazol-4-yl)-5-(trifluoromethyl)pyridin-2(1H)-one] | < 10
16 | CN1CCN(c2cc(Nc3nc4ncc(Oc5cnn6ccncc56)c(Cl)c4n3C)cc(C(F)(F)F)c2)CC1 [Example I-172, 7-chloro-1-methyl-N-(3-(4-methylpiperazin-1-yl)-5-(trifluoromethyl)phenyl)-6-(pyrazolo[1,5-a]pyrazin-3-yloxy)-1H-imidazo[4,5-b]pyridin-2-amine] | < 10
17 | Cn1c(Nc2ccc(CN3CCC(F)(F)CC3)c(C(F)(F)F)c2)nc2ncc(Oc3cnn4ccncc34)c(Cl)c21 [Example I-173, 7-chloro-N-(4-((4,4-difluoropiperidin-1-yl)methyl)-3-(trifluoromethyl)phenyl)-1-methyl-6-(pyrazolo[1,5-a]pyrazin-3-yloxy)-1H-imidazo[4,5-b]pyridin-2-amine] | 10 to 50
18 | Cn1c(Nc2ccc(CN3CCCC(F)(F)C3)c(C(F)(F)F)c2)nc2ncc(Oc3cnn4ccncc34)c(Cl)c21 [Example I-174, 7-chloro-N-(4-((3,3-difluoropiperidin-1-yl)methyl)-3-(trifluoromethyl)phenyl)-1-methyl-6-(pyrazolo[1,5-a]pyrazin-3-yloxy)-1H-imidazo[4,5-b]pyridin-2-amine] | 10 to 50
19 | CO[C@H]1CCN(Cc2ccc(Nc3nc4ncc(Oc5cnn6ccncc56)c(Cl)c4n3C)cc2C(F)(F)F)C1 [Example I-175, (S)-7-chloro-N-(4-((3-methoxypyrrolidin-1-yl)methyl)-3-(trifluoromethyl)phenyl)-1-methyl-6-(pyrazolo[1,5-a]pyrazin-3-yloxy)-1H-imidazo[4,5-b]pyridin-2-amine] | 10 to 50
20 | CO[C@@H]1CCN(Cc2ccc(Nc3nc4ncc(Oc5cnn6ccncc56)c(Cl)c4n3C)cc2C(F)(F)F)C1 [Example I-176, (R)-7-chloro-N-(4-((3-methoxypyrrolidin-1-yl)methyl)-3-(trifluoromethyl)phenyl)-1-methyl-6-(pyrazolo[1,5-a]pyrazin-3-yloxy)-1H-imidazo[4,5-b]pyridin-2-amine] | < 10
21 | Cn1cc(C(F)(F)F)cc(Nc2nc3ncc(Oc4cnn5ccncc45)c(Cl)c3n2C)c1=O [Example I-177, 3-((7-chloro-1-methyl-6-(pyrazolo[1,5-a]pyrazin-3-yloxy)-1H-imidazo[4,5-b]pyridin-2-yl)amino)-1-methyl-5-(trifluoromethyl)pyridin-2(1H)-one] | < 10
22 | CNc1nccn2ncc(Oc3cnc4nc(Nc5cc(C(F)(F)F)cn(C6CC6)c5=O)n(C)c4c3Cl)c12 [Example I-178, 3-((7-chloro-1-methyl-6-((4-(methylamino)pyrazolo[1,5-a]pyrazin-3-yl)oxy)-1H-imidazo[4,5-b]pyridin-2-yl)amino)-1-cyclopropyl-5-(trifluoromethyl)pyridin-2(1H)-one] | < 10
23 | CNc1nccn2ncc(Oc3cnc4nc(Nc5cc(C(F)(F)F)cn(-c6cccnc6)c5=O)n(C)c4c3Cl)c12 [Example I-179, 3-((7-chloro-1-methyl-6-((4-(methylamino)pyrazolo[1,5-a]pyrazin-3-yl)oxy)-1H-imidazo[4,5-b]pyridin-2-yl)amino)-5-(trifluoromethyl)-2H-[1,3′-bipyridin]-2-one] | < 10
24 | Cc1cn(-c2cc(Nc3nc4ncc(Oc5cnn6ccncc56)c(Cl)c4n3C)cc(C(F)(F)F)c2)cn1 [Example I-180, 7-chloro-1-methyl-N-(3-(4-methyl-1H-imidazol-1-yl)-5-(trifluoromethyl)phenyl)-6-(pyrazolo[1,5-a]pyrazin-3-yloxy)-1H-imidazo[4,5-b]pyridin-2-amine] | < 10
25 | CO[C@H]1CCN(Cc2cc(Nc3nc4ncc(Oc5cnn6ccncc56)c(Cl)c4n3C)cc(C(F)(F)F)c2)C1 [Example I-181, (S)-7-chloro-N-(3-((3-methoxypyrrolidin-1-yl)methyl)-5-(trifluoromethyl)phenyl)-1-methyl-6-(pyrazolo[1,5-a]pyrazin-3-yloxy)-1H-imidazo[4,5-b]pyridin-2-amine] | < 10
26 | CO[C@@H]1CCN(Cc2cc(Nc3nc4ncc(Oc5cnn6ccncc56)c(Cl)c4n3C)cc(C(F)(F)F)c2)C1 [Example I-182, (R)-7-chloro-N-(3-((3-methoxypyrrolidin-1-yl)methyl)-5-(trifluoromethyl)phenyl)-1-methyl-6-(pyrazolo[1,5-a]pyrazin-3-yloxy)-1H-imidazo[4,5-b]pyridin-2-amine] | < 10
